PMC3071440 (Journal of medicinal chemistry, 2010)

Assays:
[1] = In vivo PK in rats following oral administration; conditions: rat, oral 10 mg/kg, harvested at or near Tmax
[2] = rat, oral 10 mg/kg; cited from earlier work

| Brain level [1] | Compound | brain levels following oral dosing [2] |
| --- | --- | --- |
| 3.8 ± 1.2 µM | O=C(O)c1cc(-c2cccc(COc3ccc4c(c3)CN(C3CCCC3)C4=O)c2)ccc1Cl [Compound 8a, 4-Chloro-3′-((2-cyclopentyl-1-oxoisoindolin-5-yloxy)-methyl)biphenyl-3-carboxylic acid] | – |
| – | Cc1c(OCc2cccc(-c3ccc(C(=O)O)cc3)c2)cc2c(c1C)C(=O)C(C1CCCC1)C2 (centres unmarked) [Compound 1, 3′-((2-cyclopentyl-6,7-dimethyl-1-oxo-2,3-dihydro-1H-inden-5-yloxy)methyl)biphenyl-4-carboxylic acid] | below the limit of quantitation |
